Molecular target: T1, human GCGR (Homo sapiens, UniProt P47871)
T1 construct: expressed in transfected cells; host or cells: HEK293 (hGluc-1HEK), pcDNA3.1, G418 selection
Experiment: Cellular functional assay, cAMP readout (glucagon-stimulated cAMP, LANCE TR-FRET)
Format: cell-based
Settings: HEK293 cells stably expressing full-length human GCGR; glucagon 100 pM; IC50 converted to Ki; read-out: Inhibition of cAMP Ki

T1 sequence (P47871 26-477): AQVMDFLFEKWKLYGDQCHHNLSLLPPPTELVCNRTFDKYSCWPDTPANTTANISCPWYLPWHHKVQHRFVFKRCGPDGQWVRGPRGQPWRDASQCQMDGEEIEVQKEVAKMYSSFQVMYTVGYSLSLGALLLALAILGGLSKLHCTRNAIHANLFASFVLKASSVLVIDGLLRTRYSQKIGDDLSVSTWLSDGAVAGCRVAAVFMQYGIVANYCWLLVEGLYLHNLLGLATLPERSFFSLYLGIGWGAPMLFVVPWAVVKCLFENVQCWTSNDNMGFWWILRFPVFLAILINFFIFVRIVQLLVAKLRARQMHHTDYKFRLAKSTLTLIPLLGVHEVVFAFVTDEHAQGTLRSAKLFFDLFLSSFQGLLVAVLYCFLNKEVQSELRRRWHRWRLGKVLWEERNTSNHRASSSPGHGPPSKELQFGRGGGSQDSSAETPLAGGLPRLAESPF

Ki [nM] | SMILES
125 | O=C(O)CCNC(=O)c1ccc(C(CCC(F)(F)F)n2cc3cc(-c4cc5ccccc5s4)ccc3n2)cc1 (stereo not shown) [Compound #122, 3-[[4-[1-[5-(Benzothiophen-2-yl)indazol-2-yl]-4,4,4-trifluorobutyl]benzoyl]amino]propanoic acid]
1650 | O=C(O)CCNC(=O)c1ccc(C(CCC(F)(F)F)n2ncc3cc(-c4cc(Cl)cc(Cl)c4)ccc32)cc1 (stereo not shown) [Compound #45, 3-[[4-[1-[5-(3,5-Dichlorophenyl)indazol-1-yl]-4,4,4-trifluorobutyl]benzoyl]amino]propanoic acid]
1270 | CC(C)C[C@H](c1ccc(C(=O)NCCC(=O)O)cc1)n1ncc2cc(-c3ccc(C(F)(F)F)cc3Cl)ccc21 [Compound #85, 3-[[4-[(1R)-1-[5-[2-Chloro-4-(trifluoromethyl)phenyl]indazol-1-yl]-3-methyl-butyl]benzoyl]amino]propanoic acid]
76 | CC(C)CC(c1ccc(C(=O)NCCC(=O)O)cc1)n1cc2cc(-c3cc4ccccc4o3)ccc2n1 (stereo not shown) [Compound #13]
125 | CCCC(c1ccc(C(=O)NCCC(=O)O)cc1)n1cc2cc(-c3ccc(C(F)(F)F)cc3)ccc2n1 (stereo not shown) [compound 91]
26 | Cc1cc2c(cnn2C(CC(C)C)c2ccc(C(=O)NCCC(=O)O)cc2)cc1-c1ccc(C(F)(F)F)cc1Cl (stereo not shown) [Compound #94, 3-[[4-[1-[5-[2-Chloro-4-(trifluoromethyl)phenyl]-6-methyl-indazol-1-yl]-3-methyl-butyl]benzoyl]amino]propanoic acid]
190 | Cc1cc2c(cnn2C(CC(C)C)c2ccc(C(=O)NCCC(=O)O)cc2)cc1-c1cc2ccccc2s1 (stereo not shown) [Compound #174, 3-[[4-[1-[5-(Benzothiophen-2-yl)-6-methyl-indazol-1-yl]-3-methyl-butyl]benzoyl]amino]propanoic acid]
1000 | CC(C)CC(c1ccc(C(=O)NCCC(=O)O)cc1)n1cc2cc(-c3cnc4ccccc4c3)ccc2n1 (stereo not shown) [compound 117]
57 | CCOc1c(-c2ccc(C(F)(F)F)cc2Cl)ccc2nn(C(CC(C)C)c3ccc(C(=O)NCCC(=O)O)nc3)cc12 (stereo not shown) [Compound #205, 3-(5-(1-(5-(2-Chloro-4-(trifluoromethyl)phenyl)-4-ethoxy-2H-indazol-2-yl)-3-methylbutyl)picolinamido)propanoic acid]
> 5200 | CC(C)CC(c1ccc(C(=O)NCCC(=O)O)cc1)n1ncc2cc(-c3cccnc3)ccc21 (stereo not shown) [compound 219]
210 | O=C(O)CCNC(=O)c1ccc(C(CCC2CCC2)n2cc3cc(-c4ccc(C(F)(F)F)cc4)ccc3n2)cc1 (stereo not shown) [Compound #215, 3-(4-(3-Cyclobutyl-1-(5-(4-(trifluoromethyl)phenyl)-2H-indazol-2-yl)propyl)benzamido)propanoic acid]
19 | Cc1cc(C(F)(F)F)ccc1-c1cc2cn(C(CC(C)C)c3ccc(C(=O)NCCC(=O)O)cc3)nc2cc1C (stereo not shown) [Compound #54, 3-[[4-[3-Methyl-1-[6-methyl-5-[2-methyl-4-(trifluoromethyl)phenyl]indazol-2-yl]butyl]benzoyl]amino]propanoic acid]
230 | COc1ccc2sc(-c3ccc4c(cnn4C(CC(C)C)c4ccc(C(=O)NCCC(=O)O)cc4)c3)cc2c1 (stereo not shown) [compound 132]
340 | CC(C)CC(c1ccc(C(=O)NCCC(=O)O)cc1)n1cc2cc(-c3ccc4cnn(C)c4c3)ccc2n1 (stereo not shown) [compound 80]
330 | CC(C)CCC(c1ccc(C(=O)NCCC(=O)O)cc1)n1cc2cc(-c3ccc(C(C)(C)C)cc3)ccc2n1 (stereo not shown) [Compound #227, 3-(4-(1-(5-(4-(tert-Butyl)phenyl)-2H-indazol-2-yl)-4-methylpentyl)benzamido)propanoic acid]
102 | Cc1cc2c(cnn2C(CC(C)C)c2ccc(C(=O)NCCC(=O)O)cc2)cc1-c1ccc(C(F)(F)F)cc1 (stereo not shown) [Compound #25, 3-[[4-[3-Methyl-1-[6-methyl-5-[4-(trifluoromethyl)phenyl]indazol-1-yl]butyl]benzoyl]amino]propanoic acid]
22 | COc1c(-c2ccc(C(F)(F)F)cc2Cl)ccc2nn(C(CC(C)C)c3ccc(C(=O)NCCC(=O)O)cc3)cc12 (stereo not shown) [Compound #137, 3-(4-(1-(5-(2-Chloro-4-(trifluoromethyl)phenyl)-4-methoxy-2H-indazol-2-yl)-3-methylbutyl)benzamido)propanoic acid]

Ki [nM] | SMILES
255 | CCCCCC(c1ccc(C(=O)NCCC(=O)O)cc1)n1ncc2cc(-c3ccc(C(C)(C)C)cc3)ccc21 (stereo not shown) [compound 88]
90 | CC(C)(C)CC(c1ccc(C(=O)NCCC(=O)O)nc1)n1cc2cc(-c3ccc(C(F)(F)F)cc3)ccc2n1 (stereo not shown) [compound 212]
700 | CC(C)CC(c1ccc(C(=O)NCCC(=O)O)nc1)n1cc2cc(-c3ccc(C(C)(C)C)cc3)ccc2n1 (stereo not shown) [Compound #2]
210 | Cc1cc(Cl)ccc1-c1ccc2c(cnn2C(CC(C)(C)C)c2ccc(C(=O)NCCC(=O)O)nc2)c1 (stereo not shown) [compound 238]
330 | O=C(O)CCNC(=O)c1ccc(C(CC2CC2)n2ncc3cc(-c4ccc(C(F)(F)F)cc4)ccc32)cc1 (stereo not shown) [compound 32]
170 | CC(C)CC(c1ccc(C(=O)NCCC(=O)O)cc1)n1cc2cc(-c3cc4ccc(F)cc4s3)ccc2n1 (stereo not shown) [compound 57]
9 | Cc1cc(C(F)(F)F)ccc1-c1ccc2nn(C(CC(C)C)c3ccc(C(=O)NCCC(=O)O)nc3)cc2c1C (stereo not shown) [Compound #155, 3-(5-(3-Methyl-1-(4-methyl-5-(2-methyl-4-(trifluoromethyl)phenyl)-2H-indazol-2-yl)butyl)picolinamido)propanoic acid]
21 | CCCCCCC(c1ccc(C(=O)NCCC(=O)O)cc1)n1cc2cc(-c3ccc(Cl)cc3C)ccc2n1 (stereo not shown) [compound 204]
> 5200 | CC(C)CCn1cc(-c2ccc3c(cnn3C(CC(C)C)c3ccc(C(=O)NCCC(=O)O)cc3)c2)cn1 (stereo not shown) [compound 123]
105 | CC(C)CCC(c1ccc(C(=O)NCCC(=O)O)cc1)n1cc2cc(-c3ccc(C(F)(F)F)cc3)ccc2n1 (stereo not shown) [compound 27]
210 | Cc1cc(Cl)ccc1-c1ccc2c(cnn2C(CC2CCCCC2)c2ccc(C(=O)NCCC(=O)O)cc2)c1 (stereo not shown) [compound 194]
490 | Cc1cc(Cl)ccc1-c1ccc2c(cnn2C(CCC(F)(F)F)c2ccc(C(=O)NCCC(=O)O)cc2)c1 (stereo not shown) [Compound #40, 3-[[4-[1-[5-(4-Chloro-2-methyl-phenyl)indazol-1-yl]-4,4,4-trifluorobutyl]benzoyl]amino]propanoic acid]
650 | O=C(O)CCNC(=O)c1ccc(C(CC2CCC2)n2ncc3cc(-c4ccc(C(F)(F)F)cc4)ccc32)cn1 (stereo not shown) [compound 251]
310 | O=C(O)CCNC(=O)c1ccc(C(CC2CCCC2)n2ncc3cc(-c4ccc(C(F)(F)F)cc4)ccc32)cn1 (stereo not shown) [compound 199]
114 | CC(C)(C)c1ccc(-c2ccc3c(cnn3C(CC3CCCCC3)c3ccc(C(=O)NCCC(=O)O)cc3)c2)cc1 (stereo not shown) [Compound #24, 3-(4-(1-(5-(4-(tert-Butyl)phenyl)-1H-indazol-1-yl)-2-cyclohexylethyl)benzamido)propanoic acid]
280 | Cc1ccc2sc(-c3ccc4c(cnn4C(CC(C)C)c4ccc(C(=O)NCCC(=O)O)cc4)c3)cc2c1 (stereo not shown) [compound 230]
52 | Cc1cc2nn(C(CC(C)C)c3ccc(C(=O)NCCC(=O)O)cc3)cc2cc1-c1ccc(C(F)(F)F)cc1Cl (stereo not shown) [Compound #95, 3-[[4-[1-[5-[2-Chloro-4-(trifluoromethyl)phenyl]-6-methyl-indazol-2-yl]-3-methyl-butyl]benzoyl]amino]propanoic acid]
